Test results: patent publication US10556907B2 (AbbVie Inc., priority 2015, dated 2020)
Read-outs that look alike come from different tables or passages of the source.

How the values were obtained:
Test in all cases: Method 1: intracellular Ca2+ release (FLIPR, Calcium 5) in recombinant CHO-K1 cells
Type in all cases: cell-based
human S1PR1 receptor = target: T1, human S1PR1 receptor (Homo sapiens, UniProt P21453); details: (1): determined with method 1; read-out: S1P1 EC50
T1 construct: host or cells: CHO-K1
Description: (§1) Agonistic activity was measured using two different methods, described below.
(§2) Method 1. Intracellular Ca^2+ Release
(§3) Agonist potency and intrinsic activity was assessed by measurement of intracellular Ca^2+ release. Recombinant CHO-K1 cells (Euroscreen, Brussels, Belgium) expressing human S1PR5, S1PR1, S1PR3 or S1PR4 receptors, aequorin, and GTP binding protein Gq/i5 were cultured using a medium containing nutrient mixture F-12 Ham (Sigma-Aldrich) with 10% FBS, and 100 μg/mL gentamicin and equilibrated at 5% CO2.
(§4) 15.000 cells in 20 μL medium were seeded into Biocoat poly-D-Lysine coated 384 well plates (Becton Dickinson #35-6663) and grown to 95% confluency after 24 h.
(§5) Culture medium was replaced by an assay buffer consisting of HBBS with Ca^2+ and Mg^2+ (Invitrogen #14025-050), 20 mmol/L Hepes (Sigma-Aldrich #H-3375), 2.5 mmol/L probenecid (Sigma-Aldrich #P-8761, and 0.1% BSA (Sigma-Aldrich #A-7030) pH 7.4. The Calcium 5 no-wash FLIPR assay kit (Molecular Devices #5000625) was performed as described in the kit instructions. Cells were incubated with Calcium 5 dye for 1 h at 37° C., 5% CO2 in the dark. After 45 min adaptation to RT assessment of agonist stimulation of intracellular Ca^2+ release was performed by addition of test compounds at concentrations obtained by serial dilution. Phospho-fingolimod was used as positive control. Antagonists were pre-incubated for 10 min with cells before addition of the agonist (phospho-fingolimod at EC80). Measurements were performed using a fluorometric imaging plate reader FLIPR® tetra (Molecular Devices). Agonist at the human S1P receptors were characterized by deducing EC50 (potency) values from a nonlinear fit to the measured fluorescence raw data after normalization to the reference agonist (phospho-fingolimod) curve.

human S1PR3 receptor = target: T2, human S1PR3 receptor (Homo sapiens, UniProt Q99500); details: (1): determined with method 1; read-out: S1P3 EC50
T2 construct: host or cells: CHO-K1
Description: as §1, §2, §3, §4, §5

human S1PR5 receptor = target: T3, human S1PR5 receptor (Homo sapiens, UniProt Q9H228)
T3 construct: host or cells: CHO-K1
Description: as §1, §2, §3, §4, §5

[1] = agonist potency, determined with method 1 (symbols A-D), read-out: S1P5 EC50 range

T2 sequence (Q99500 whole entry): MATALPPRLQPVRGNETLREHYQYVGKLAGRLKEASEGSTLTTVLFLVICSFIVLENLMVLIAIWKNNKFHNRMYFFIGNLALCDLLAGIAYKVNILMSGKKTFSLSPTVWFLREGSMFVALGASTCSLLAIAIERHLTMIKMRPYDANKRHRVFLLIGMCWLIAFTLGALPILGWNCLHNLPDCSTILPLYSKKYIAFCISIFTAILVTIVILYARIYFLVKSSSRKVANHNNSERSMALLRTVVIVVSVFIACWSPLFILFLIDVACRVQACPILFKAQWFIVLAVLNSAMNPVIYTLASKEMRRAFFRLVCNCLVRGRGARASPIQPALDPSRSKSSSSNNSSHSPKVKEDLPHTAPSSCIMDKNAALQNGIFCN
T3 sequence (Q9H228 whole entry): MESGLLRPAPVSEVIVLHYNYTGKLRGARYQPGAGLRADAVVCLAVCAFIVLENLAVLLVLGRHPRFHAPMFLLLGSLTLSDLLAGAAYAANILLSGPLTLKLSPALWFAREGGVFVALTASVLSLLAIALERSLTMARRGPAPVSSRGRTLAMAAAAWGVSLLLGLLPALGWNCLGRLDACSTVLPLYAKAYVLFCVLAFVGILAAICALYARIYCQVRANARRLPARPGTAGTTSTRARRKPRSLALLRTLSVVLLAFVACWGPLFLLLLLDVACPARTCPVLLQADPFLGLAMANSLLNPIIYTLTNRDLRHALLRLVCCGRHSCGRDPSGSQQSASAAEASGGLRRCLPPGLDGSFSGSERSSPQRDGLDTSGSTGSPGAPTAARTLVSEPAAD
T1 sequence (P21453 whole entry): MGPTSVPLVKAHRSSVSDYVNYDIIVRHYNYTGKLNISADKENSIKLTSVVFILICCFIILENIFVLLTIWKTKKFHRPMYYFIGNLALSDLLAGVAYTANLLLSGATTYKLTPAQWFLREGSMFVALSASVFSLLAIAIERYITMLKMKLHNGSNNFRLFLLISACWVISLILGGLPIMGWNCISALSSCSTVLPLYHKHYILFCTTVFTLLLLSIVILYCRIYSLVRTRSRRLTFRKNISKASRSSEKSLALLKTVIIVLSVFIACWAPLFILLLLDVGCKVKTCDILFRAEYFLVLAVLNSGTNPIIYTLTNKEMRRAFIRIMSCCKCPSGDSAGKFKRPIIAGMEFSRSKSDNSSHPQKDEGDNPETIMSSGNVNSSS

Row | SMILES | EC50 (human S1PR1 receptor) | EC50 (human S1PR3 receptor) | EC50 (human S1PR5 receptor; [1]) | EC50 (human S1PR5 receptor; (1): determined with method 1, read-out: S1P5 EC50 range (bound printed instead of class symbol))
1 | CC(CC(=O)O)N1CCc2nc(-c3ccc(OCc4cccc(Cl)c4)cc3)ncc2C1 (stereo not shown) [Compound 43, 3-(2-(4-((3-chlorobenzyl)oxy)phenyl)-7,8-dihydropyrido[4,3-d]pyrimidin-6(5H)-yl)butanoic acid] | > 1000 nM | > 1000 nM | 100 to 1000 nM | –
2 | O=C(O)CCCN1Cc2cnc(-c3ccc(OCc4ccccc4)cc3)nc2C1 [Compound 99, 4-(2-(4-(benzyloxy)phenyl)-5H-pyrrolo[3,4-d]pyrimidin-6(7H)-yl)butanoic acid] | > 1000 nM | > 1000 nM | 1000 to 10000 nM | –
3 | CC(C)Oc1ccc(-c2ncc3c(n2)CCN(CCC(=O)O)C3)cc1Cl [Compound 79, 3-(2-(3-chloro-4-isopropoxyphenyl)-7,8-dihydropyrido[4,3-d]pyrimidin-6(5H)-yl)propanoic acid] | > 1000 nM | > 1000 nM | 1000 to 10000 nM | –
4 | O=C(O)CCN1CCc2nc(-c3ccc(OCc4ccccc4OC(F)(F)F)cc3)ncc2C1 [Compound 84, 3-(2-(4-((2-(trifluoromethoxy)benzyl)oxy)phenyl)-7,8-dihydropyrido[4,3-d]pyrimidin-6(5H)-yl)propanoic acid] | > 1000 nM | > 1000 nM | 10 to 100 nM | –
5 | Cc1cc(-c2ccc3c(n2)CCN(CC(=O)O)C3)ccc1OCc1ccccc1 [Compound 111, 2-(2-(4-(benzyloxy)-3-methylphenyl)-7,8-dihydro-1,6-naphthyridin-6(5H)-yl)acetic acid] | > 1000 nM | > 1000 nM | 100 to 1000 nM | –
6 | CC(CC(=O)O)N1CCc2nc(-c3ccc(OCc4ccc(Cl)cc4)cc3)ncc2C1 (stereo not shown) [Compound 44, 3-(2-(4-((4-chlorobenzyl)oxy)phenyl)-7,8-dihydropyrido[4,3-d]pyrimidin-6(5H)-yl)butanoic acid] | > 1000 nM | > 1000 nM | 10 to 100 nM | –
7 | CC(CN1CCc2nc(-c3ccc(OCc4ccc(F)cc4)c(Cl)c3)ccc2C1)C(=O)O (stereo not shown) [Compound 104, 3-(2-(4-((4-fluorobenzyl)oxy)-3-chlorophenyl)-7,8-dihydro-1,6-naphthyridin-6(5H)-yl)-2-methylpropanoic acid] | > 1000 nM | > 1000 nM | 10 to 100 nM | –
8 | Cc1ccc(C(F)(F)F)c(COc2ccc(-c3ncc4c(n3)CCN(CCC(=O)O)C4)cc2)c1 [Compound 91, 3-(2-(4-((5-methyl-2-(trifluoromethyl)benzyl)oxy)phenyl)-7,8-dihydropyrido[4,3-d]pyrimidin-6(5H)-yl)propanoic acid] | > 1000 nM | > 1000 nM | 100 to 1000 nM | –
9 | O=C(O)CCN1Cc2ccc(-c3cccc(OCc4ccccc4)c3)nc2C1 [Compound 204, 3-(2-(3-(benzyloxy)phenyl)-5H-pyrrolo[3,4-b]pyridin-6(7H)-yl)propanoic acid] | > 1000 nM | > 1000 nM | 1000 to 10000 nM | –
10 | CC(CC(=O)O)N1Cc2ccc(-c3ccc(OCc4c(Cl)cccc4Cl)cc3)nc2C1 (stereo not shown) [Compound 201, 3-(2-(4-((2,6-dichlorobenzyl)oxy)phenyl)-5H-pyrrolo[3,4-b]pyridin-6(7H)-yl)butanoic acid] | > 1000 nM | > 1000 nM | 1000 to 10000 nM | –
11 | CC(C)Oc1ccc(-c2ncc3c(n2)CCN(CCC(=O)O)C3)cc1 [Compound 75, 3-(2-(4-isopropoxyphenyl)-7,8-dihydropyrido[4,3-d]pyrimidin-6(5H)-yl)propanoic acid] | > 1000 nM | > 1000 nM | 1000 to 10000 nM | –
12 | CC(CN1CCc2nc(-c3ccc(OCc4ccccc4)cc3Cl)ccc2C1)C(=O)O (stereo not shown) [Compound 108, 3-(2-(4-(benzyloxy)-2-chlorophenyl)-7,8-dihydro-1,6-naphthyridin-6(5H)-yl)-2-methylpropanoic acid] | > 1000 nM | > 1000 nM | 100 to 1000 nM | –
13 | CCc1cccc(Cl)c1COc1ccc(-c2nc3c(cc2F)CN(CCC(=O)O)CC3)cc1 [Compound 196, 3-(2-(4-((2-chloro-6-ethylbenzyl)oxy)phenyl)-3-fluoro-7,8-dihydro-1,6-naphthyridin-6(5H)-yl)propanoic acid] | > 1000 nM | > 1000 nM | 10 to 100 nM | –
14 | Cc1cc(-c2ccc3c(n2)CCN(CCC(=O)O)C3)ccc1OCc1ccc(F)cc1 [Compound 168, 3-(2-(4-((4-fluorobenzyl)oxy)-3-methylphenyl)-7,8-dihydro-1,6-naphthyridin-6(5H)-yl)propanoic acid] | > 1000 nM | > 1000 nM | 10 to 100 nM | –
15 | O=C(O)CC1(CN2CCc3nc(-c4ccc(OCc5cccc(Cl)c5)cc4)ncc3C2)CC1 [Compound 327, 2-((4(2-(4-((3-chlorobenzyl)oxy)phenyl)-7,8-dihydropyrido[4,3-d]pyrimidin-6(5H)-yl)methyl)cyclopropyl)acetic acid] | – | – | 1000 to 10000 nM | –
16 | CC(CC(=O)O)CN1Cc2cnc(-c3ccc(OCc4ccc(Cl)cc4)cc3)nc2CC12CCC2 (stereo not shown) [Compound 326, 4-(2′-(4-((4-chlorobenzyl)oxy)phenyl)-5′H-spiro[cyclobutane-1,7′-pyrido[4,3-d]pyrimidin]-6′(8′H)-yl)-3-methylbutanoic acid] | – | > 1000 nM | – | > 1000 nM
17 | O=C(O)CC1(CN2CCc3nc(-c4ccc(OCc5ccc(Cl)cc5)cc4)ncc3C2)CC1 [Compound 286, 2-((4(2-(4-((4-chlorobenzyl)oxy)phenyl)-7,8-dihydropyrido[4,3-d]pyrimidin-6(5H)-yl)methyl)cyclopropyl)acetic acid] | – | – | 100 to 1000 nM | –

Next, values leading:

Row | EC50 (human S1PR1 receptor) | EC50 (human S1PR3 receptor) | EC50 (human S1PR5 receptor; [1]) | EC50 (human S1PR5 receptor; (1): determined with method 1, read-out: S1P5 EC50 range (bound printed instead of class symbol)) | SMILES
18 | > 1000 nM | > 1000 nM | 10 to 100 nM | – | CC(CC(=O)O)CN1CCc2nc(-c3ccc(OCc4ccccc4)cc3)ncc2C1 (stereo not shown) [Compound 21, 4-(2-(4-(benzyloxy)phenyl)-7,8-dihydropyrido[4,3-d]pyrimidin-6(5H)-yl)-3-methylbutanoic acid]
19 | < 1000 nM | > 1000 nM | 10 to 100 nM | – | CC(CN1CCc2nc(-c3ccc(OCc4ccccc4)cc3F)ccc2C1)C(=O)O (stereo not shown) [Compound 102, 3-(2-(4-(benzyloxy)-2-fluorophenyl)-7,8-dihydro-1,6-naphthyridin-6(5H)-yl)-2-methylpropanoic acid]
20 | > 1000 nM | > 1000 nM | 10 to 100 nM | – | O=C(O)CCN1CCc2nc(-c3ccc(OCc4cccc(F)c4)cc3)ncc2C1 [Compound 68, 3-(2-(4-((3-fluorobenzyl)oxy)phenyl)-7,8-dihydropyrido[4,3-d]pyrimidin-6(5H)-yl)propanoic acid]
21 | > 1000 nM | > 1000 nM | 10 to 100 nM | – | Cc1ccc(COc2ccc(-c3ccc4c(n3)CCN(CCC(=O)O)C4)cc2)cc1C(F)(F)F [Compound 154, 3-(2-(4-((3-trifluoromethyl-4-(methyl)benzyl)oxy)phenyl)-7,8-dihydro-1,6-naphthyridin-6(5H)-yl)propanoic acid]
22 | < 1000 nM | > 1000 nM | < 10 nM | – | O=C(O)CCN1CCc2nc(-c3ccc(OCc4ccc(C(F)(F)F)cc4)cc3)c(F)cc2C1 [Compound 191, 3-(2-(4-((4-trifluoromethylbenzyl)oxy)phenyl)-3-fluoro-7,8-dihydro-1,6-naphthyridin-6(5H)-yl)propanoic acid]
23 | < 1000 nM | > 1000 nM | < 10 nM | – | O=C(O)CCN1CCc2nc(-c3ccc(OCc4ccc(Cl)cc4)cc3)c(F)cc2C1 [Compound 187, 3-(2-(4-((4-chlorobenzyl)oxy)phenyl)-3-fluoro-7,8-dihydro-1,6-naphthyridin-6(5H)-yl)propanoic acid]
24 | > 1000 nM | > 1000 nM | < 10 nM | – | O=C(O)CCN1CCc2nc(-c3ccc(OCc4ccc(F)c(F)c4)cc3)ncc2C1 [Compound 71, 3-(2-(4-((3,4-difluorobenzyl)oxy)phenyl)-7,8-dihydropyrido[4,3-d]pyrimidin-6(5H)-yl)propanoic acid]
25 | < 1000 nM | > 1000 nM | < 10 nM | – | Cc1cc(OC(F)(F)F)ccc1COc1ccc(-c2ncc3c(n2)CCN(CCC(=O)O)C3)cc1 [Compound 93, 3-(2-(4-((2-methyl-4-(trifluoromethoxy)benzyl)oxy)phenyl)-7,8-dihydropyrido[4,3-d]pyrimidin-6(5H)-yl)propanoic acid]
26 | > 1000 nM | > 1000 nM | < 10 nM | – | O=C(O)CCCN1CCc2nc(-c3ccc(OCc4cccc(F)c4)cc3)ccc2C1 [Compound 116, 4-(2-(4-((3-fluorobenzyl)oxy)phenyl)-7,8-dihydro-1,6-naphthyridin-6(5H)-yl)butanoic acid]
27 | < 1000 nM | > 1000 nM | < 10 nM | – | O=C(O)CCN1CCc2nc(-c3ccc(OCc4cccc(OC(F)(F)F)c4)cc3)ccc2C1 [Compound 151, 3-(2-(4-((3-trifluoromethoxybenzyl)oxy)phenyl)-7,8-dihydro-1,6-naphthyridin-6(5H)-yl)propanoic acid]
